According to patent publication US20040039041A1, “Prevention of development of dyskinesias” (priority 2003, published 2004):

Tests used:
[1] = tested on: C57BL/6J strain male mice; test: Locomotor activity during chronic treatment (days 1-8), D-amphetamine sensitization schedule with atipamezole pre-treatment; type: in vivo
Protocol: The effects of atipamezole on the locomotor hyperactivity induced by repeated administration of D-amphetamine were studied in male mice.
(§1) Experiments were performed with C57BL/6J strain male mice from Jackson Laboratories. Mice were transferred to laboratory at least 2 weeks prior to use. The mice were from 8 to 20 weeks of age at the beginning of an experiment. Groups of 10 mice were housed in standard polypropylene cages (38×22×15 cm) with free access to standard certified pelleted food (RM1 Maintenance Expanded SQC; Special Diet Services, Essex, UK) and water. Ambient temperature was 22±1 C°, and a 12:12 h light/dark cycle was maintained with lights on at 6 A.M. All experiments were carried out between 7 A.M. and 5 P.M. The animal care was performed in accordance with International Council for Laboratory Animal Science (ICLAS) guidelines.
(§2) D-Amphetamine sulphate (Sigma, St. Louis, Mo., U.S.A.) and atipamezole HCl (Orion Corporation, Orion Pharma, Turku, Finland) were dissolved in saline (0.9% NaCl) and administered subcutaneously (s.c.) in a 5 ml/kg volume.
(§3) The locomotor activity of the mice was measured in transparent standard polypropylene animal cages (38×22×15 cm) with transparent cover and aspen bedding on the floor. Test cages were placed middle of the photobeam frame system (Photobeam Activity System PAS, Cage Rack, San Diego Instruments, San Diego, Calif.). Computer control unit registered the interruptions of photobeams from 16 individual cages. Three different types of movements were monitored: 1) ambulations (large horizontal movements), 2) fine movements (smaller horizontal movements) and 3) rearings (vertical movements). Locomotor activity was measured at 5-min intervals for 2 h immediately after D-amphetamine or saline administrations.
D-amphetamine was administered subcutaneously (s.c.) at the dose of 2 mg/kg. Atipamezole was administered s.c. at the dose of 1 mg/kg 20 min before locomotor activity measurement.
In the chronic-treatment group mice were administrated during eight days to elicit provoked locomotor hyperactivity to D-amphetamine and the effect of the atipamezole to the locomotor activity. Mice groups in the chronic treatment schedule were saline, saline-amphetamine, amphetamine, atipamezole and atipamezole-amphetamine. A day before experiment, mice were habituated to the test environment. […] At days seven and eight, the produced locomotor hyperactivity and effect of a single exposure of D-amphetamine (saline-amphetamine-group) were analysed. […]
All data are presented as mean±SEM. […] Results were analysed separately, because data were collected in separate experiments with different study design. When significance (P<0.05) between treatment groups were found comparisons at each time point (date or min) were analyzed by using LSD post-hoc test.

[2] = tested on: C57BL/6J strain male mice; test: Locomotor activity after different drug treatments at day 9 in the chronic treatment groups; type: in vivo
Protocol: as §1, §2, §3
At day nine, the effect of different atipamezole and amphetamine administrations to the locomotor activity on the chronic treatment groups were analysed. Used treatments were saline, 1 mg/kg atipamezole, 2 mg/kg D-amphetamine, 0.3 mg/kg atipamezole-2 mg/kg D-amphetamine and 1 mg/kg atipamezole-2 mg/kg D-amphetamine. Chronic treatment groups were saline-, atipamezole-, amphetamine- and atipamezole-amphetamine groups. Chronic groups were treated following schedule in Table 2.
All data are presented as mean±SEM. Statistical analysis were performed using SPSS 9.0 for Windows (SPSS, Chicago, Ill.). Separate repeated measures analyses of variance (ANOVA) were performed on each variable for each experiment grouped on time and treatment group. Results were analysed separately, because data were collected in separate experiments with different study design. When significance (P<0.05) between treatment groups were found comparisons at each time point (date or min) were analyzed by using LSD post-hoc test.

Compound | ambulatory activity compared to saline group ([1]; D-amphetamine 2 mg/kg s.c., six repeated administrations (days 1-4, 7, 8), 2-h counts, group amphetamine vs saline and saline-amphetamine at Day 8 P<0.001) | ambulatory sensitization during repeated administration ([2]; Day 9, chronic amphetamine group, D-amphetamine 2 mg/kg, P<0.001) | locomotor activity after D-amphetamine ([2]; Day 9, chronic saline group, D-amphetamine 2 mg/kg s.c., P<0.001 vs saline, not same level as amphetamine group (P<0.001)) | D-amphetamine-induced locomotion, atipamezole-amphetamine vs amphetamine group ([1]; atipamezole 1 mg/kg s.c. 20 min before D-amphetamine 2 mg/kg s.c. over the course of exposure, Day 2 P<0.05, Days 3-8 P<0.001) | locomotor activity, atipamezole pre-treatment before saline challenge vs saline group ([1]; atipamezole 1 mg/kg s.c. daily for six days, 20 min before saline, Day 8, P=0.43) | development and expression of sensitization (motor overactivity) ([1]; given chronically in combination with D-amphetamine, in mice (summary statement)) | D-amphetamine-induced locomotor hyperactivity in sensitized mice ([2]; Day 9, chronic amphetamine group, atipamezole 0.3 mg/kg 20 min before D-amphetamine 2 mg/kg, P=0.005) | D-amphetamine-induced locomotor hyperactivity in sensitized mice ([2]; Day 9, chronic amphetamine group, atipamezole 1 mg/kg 20 min before D-amphetamine 2 mg/kg, P<0.001) | locomotor activity before saline and D-amphetamine challenge after chronic atipamezole ([2]; Day 9, chronic atipamezole group (1 mg/kg days 1-8)) | D-amphetamine induced locomotion, group atipamezole-amphetamine vs amphetamine-amphetamine ([2]; Day 9, chronic atipamezole-amphetamine group given atipamezole 1 mg/kg 20 min before D-amphetamine 2 mg/kg, P<0.001) | locomotor activity with D-amphetamine only at Day 9 after chronic atipamezole-amphetamine, compared to amphetamine-amphetamine group (development of sensitization) ([2]; Day 9, chronic atipamezole-amphetamine group given only D-amphetamine 2 mg/kg, P-0.026) | locomotor activity, atipamezole pre-treatment before D-amphetamine challenge compared D-amphetamine alone ([2]; Day 9, chronic saline group, atipamezole 0.3 mg/kg 20 min before D-amphetamine 2 mg/kg, P=0.016) | locomotor activity, atipamezole pre-treatment before D-amphetamine challenge compared D-amphetamine alone ([2]; Day 9, chronic saline group, atipamezole 1 mg/kg 20 min before D-amphetamine 2 mg/kg, P=0.364) | total ambulatory activity counts, atipamezole pre-treatment alone ([2]; Day 9, chronic saline group, atipamezole 1 mg/kg 20 min before saline, P=0.81)
C[C@H](N)Cc1ccccc1 [D-amphetamine] | progressive enhance in ambulatory activity | developed strong ambulatory sensitization | significantly enhanced locomotor activity | – | – | – | – | – | – | – | – | – | – | –
CCC1(c2c[nH]cn2)Cc2ccccc2C1 [Atipamezole, 4-(2-ethyl-2,3-dihydro-1H-inden-2-yl)-1H-imidazole] | – | – | – | decreased significantly D-amphetamine-induced locomotion | not statistical significant difference | reduced the development and expression of sensitization | clearly attenuated the D-amphetamine-induced locomotor hyperactivity | clearly attenuated the D-amphetamine-induced locomotor hyperactivity | elevation was not statistically significant | decreased significantly D-amphetamine induced locomotion | true reduction in the development of sensitization | amplified locomotor activity | had no effect | did not alter total ambulatory activity counts
